Experiments:
Assay type in all cases: cell-based
[1] = in vitro; settings: human, Huh-3-1 replicon cells, three days, Cell Counting Kit-8; read-out: Cytotoxicity CC50
Procedure: (§1) Firefly luciferase HCV replicon cells (Huh-3-1) suspended in Dulbecco's MEM (Gibco Cat. No. 10569) containing 5% fetal bovine serum (Hyclone Cat. No. SH30071.03) were plated onto a 96-well plate at 5000 cells/well, and cultured overnight under 5% CO2 at 37° C. Approximately 20 hours later, fumonisin B1 was added to a final concentration of 1.37 μM to 1000 μM by carrying out a sequential three-fold dilution, and the cells were then cultured for three more days. The assay was carried out by preparing two types of assay plates: one an opaque white plate and the other a transparent plate. After culturing, the white plate was subjected to the Steady-Glo Luciferase Assay System (Promega Cat. No. E2520). More specifically, 100 μL of reagent was added to each well, mixed three to four times using a pipette, and then stood for five minutes before luminescence was measured using 1450 MicroBeta TRILUX (WALLAC). IC50 (50% inhibitory concentration) of a pharmaceutical agent was calculated by subtracting the value obtained without adding the cells as the background value from all of the values, and then defining the level of inhibition without addition of the pharmaceutical agent as 0%. A Cell Counting Kit-8 (DOJINDO Laboratories, Cat. No. 341-07761) was used for the cytotoxicity assays. 10 μL of reagent was added to each well, mixed three to four times using a pipette, and then stood for approximately 30 minutes; measurements were performed when OD450 nm reached approximately 1.0. IC50 (50% inhibitory concentration) of a pharmaceutical agent was calculated by subtracting the value obtained without adding the cells as the background value from all of the values, and then defining the level of inhibition without addition of the pharmaceutical agent as 0%.
(§2) Based on the results of Example 5, the following method was used to measure the effect on cytotoxicity and HCV replicon activity under conditions in which Huh-3-1 cells show reduced LCB1 expression. More specifically, cells were plated onto a 96-well plate at 3500 cells per well, and cultured overnight under 5% CO2 at 37° C. 1.75 μL of 2 μM siRNA was added to 23.3 μL of ECR buffer (buffer included in the RNAiFect Kit), this was stirred vigorously, and then 0.31 μL of RNAiFect transfection reagent was added. This was stirred gently at room temperature and then allowed to stand for ten minutes. siRNA was added to a final concentration of 35 nM, and this was cultured for four days. The effect on cytotoxicity was determined by adding 10 μL of Cell Counting Kit-8 (DOJINDO Laboratories Cat. No. 341-07761) to the medium, mixing three to four times using a pipette, and then allowing this to stand for one hour at 37° C. Absorbance was then measured at 450 nm using a microplate reader Emax (Molecular Devices). After incubation, the medium was exchanged for fresh medium, and the plate was subjected to the Steady-Glo Luciferase Assay System (Promega Cat. No. E2520). 100 μL of reagent was added to each well, mixed three to four times using a pipette, and then allowed to stand for five minutes. Luminescence was then measured using 1450 MicroBeta TRILUX (WALLAC) to determine the HCV replicon activity. IC50 (50% inhibitory concentration) of a pharmaceutical agent was calculated by subtracting the value obtained without adding the cells as the background value from all of the values, and then defining the level of inhibition without addition of the pharmaceutical agent as 0%.
(§3) A Cell Counting Kit-8 (DOJINDO Laboratories, Cat. No. 341-07761) was used for the cytotoxicity assays. More specifically, 10 μL of Cell Counting Kit-8 was added to the transparent plate, and this was warmed at 37° C. for 30 to 60 minutes. Using a 96-well plate reader, absorbance was measured at a wavelength of 450 nm with a reference wavelength of 630 nm. […]

[2] = test system: HCV replicon; test: HCV replicon assay (luciferase); settings: for IC50: firefly luciferase HCV replicon cells (Huh-3-1), cultured three days with compound; for HCV replication (replicon activity) versus viable cell count: HCV replicon cells, 72 hours; for HCV replicon activity compared with control siRNA-treated cells: Huh-3-1 cells, siRNA 35 nM, four days
Procedure: as §1, §2
First, to quantify the copy number of HCV-RNA, an RNA was constructed such that a firefly-derived luciferase gene was introduced into the HCV-RNA as a reporter gene. According to the method of Krieger et al. (J. Virol., 75: 4614), the luciferase gene was introduced immediately after the Internal Ribosome Entry Site (IRES) of the HCV gene, so that the gene was fused with the neomycin-resistance gene. […]

[3] = test system: Huh-3-1 cells; test: in vitro; settings: for CC50: Huh-3-1 replicon cells, three days, Cell Counting Kit-8, read-out: Cytotoxicity CC50; for effect of siRNA treatment on cytotoxicity: Huh-3-1 cells, siRNA 35 nM, four days
Procedure: as §1, §2, §3

[4] = test system: LCB1 (a subunit of the SPT heterodimer); test: Inhibition of LCB1 protein expression by siRNAs, Western blotting; settings: Huh-3-1 cells, siRNA 35 nM, four days
Procedure: 1.2×10^5 Huh-3-1 cells were plated onto a 6-well plate, and the cells were cultured overnight under 5% at 37° C. 2.3 μL of 20 μM siRNA was added to 100 μL of ECR buffer (a buffer included in the RNAiFect Kit), this was stirred vigorously, and after the addition of 4 μL of RNAiFect transfection reagent (Qiagen Cat. No. 301605) this was stirred gently at room temperature and allowed to stand for ten minutes. siRNA was added to a final concentration of 35 nM, and this was cultured for four days.
The cells were suspended in a cell lysis buffer (50 mM Tris-HCl (pH 7.5), 0.5% Triton, 3 mM EDTA, 150 mM NaCl, 12 mM glycerophosphate, 50 mM NaF, 1 mM Na3VO4, 0.5 mM PMSF, 0.5 mM aporotinin), and were allowed to stand on ice for ten minutes. This was centrifuged at 15,000×g for ten minutes, and the supernatant was collected. After quantifying the protein, the amount of protein in each sample was adjusted to 10 μg, and this was added to ¼ volume of 5×SDS sample buffer (125 mM Tris-HCl (pH 6.5), 25% Glycerol, 5% SDS, 0.25% BPB, 5% 2-Mercaptoethanol) and treated for five minutes at 98° C. […] The membranes were washed with 0.1% Tween 20/PBS, and then reacted for one minute with ECL, and the resulting signals were detected by autoradiography.

[5] = test system: HCV protein (NS3); test: Western blot analysis of HCV protein synthesis in Huh-3-1 replicon cells; settings: Hepatitis C virus, 72 h, read-out: concentration reducing expression of HCV proteins by 50%
Procedure: After 72 hours, the culture medium was discarded, phosphate buffered saline (PBS) was added, and the cells were dislodged by pipetting and then collected by centrifugation. A lysis solution for phosphate (50 mM Tris-HCl (pH 7.5), 0.5% Triton, 3 mM EDTA, 150 mM NaCl, 12 mM glycerophosphate, 50 mM NaF, 1 mM Na3VO4, 0.5 mM PMSF, and 0.5 mM aporotinin) was added to the cells, the cells were disrupted by pipetting, and the supernatant was collected by high-speed centrifugation. A protein assay was carried out using Dye Reagent (Nacalai Tesque #074-27) (Bovine Gamma Globulin, Standard solution, BIO-RAD #500-0005). […] Rainbow molecular weight markers (Amersham Bioscience #RPN756) were used as molecular weight size markers. […] Western analysis was performed using a rabbit antibody against NS3, derived from an HCV protein. Anti-actin rabbit antibody was used as an internal standard.

[6] = test system: HCV RNA replication; test: Northern blot analysis of HCV RNA replication in Huh-3-1 replicon cells; settings: Hepatitis C virus, 72 h, read-out: concentration reducing replicon RNA by 50%
Procedure: Cells were collected 72 hours later, total RNAs were extracted, and this was subjected to Northern blot analysis using a neomycin resistance gene as a probe according to the NorthernMax Kit method, available from Ambion.
The probes were labeled with biotin using a BrightStar Psoralen-Biotin Kit (Ambion #9860G3).
1 μg of the total RNAs were electrophoresed on a 1% agarose gel, and then the RNAs were stained with ethidium bromide. The resulting gel was photographed and decolorized, then NorthernMax transfer buffer was used for two hours to transfer the RNAs to the transfer membrane. While the membrane was still wet, the RNAs were fixed to the transfer membrane using a UV crosslinker. The membrane was pretreated in ULTRAhyb for 30 minutes at 42° C. while being rotated in a Hybridization oven. This pretreatment solution was then discarded, and the membrane was treated by adding the biotinylated neomycin resistance gene and 10 mL of ULTRAhyb solution, and then shaking overnight at 42° C.
The ULTRAhyb solution was then discarded, and 15 mL of High Stringency Buffer pre-warmed to 42° C. was added to the membrane, and this was shaken for 30 minutes at 42° C. This same operation was then repeated once. The transfer membrane was washed using enough wash buffer to soak the membrane. The transfer membrane was shaken in a blocking buffer for 30 minutes, then this solution was discarded. […]

CCCCCCCC(=O)CCCCCC/C=C/[C@H](C(=O)N[C@@H](Cc1ccc(OCC=C(C)C)cc1)C(=O)O)[C@@](O)(CC(=O)OC)C(=O)O [(41)]
CC50 [1]: > 1 µM

CCCCCCCC(=O)CCCCCC/C=C/[C@H](C(=O)N[C@@H](Cc1ccc(C#N)cc1)C(=O)O)[C@@](O)(CC(=O)O)C(=O)O [(19)]
IC50 ([2]; Hepatitis C virus, 72 h): 0.012 µM
CC50 [1]: > 1 µM

CCCCCCCC(=O)CCCCCC/C=C/[C@H](C(=O)N[C@@H](Cc1ccc(OCC=C(C)C)cc1)C(=O)O)[C@@](O)(CC(=O)O)C(=O)O [Compound (51)]
IC50 [2]: 0.072 µM
CC50 [3]: > 5 µM

CCCCCCC(O)C(=O)CCCCCC/C=C/[C@H](C(=O)N[C@@H](Cc1ccc(OCC=C(C)C)cc1)C(=O)O)[C@@](O)(CC(=O)O)C(=O)O (stereo partly shown) [(45)]
CC50 [1]: > 1 µM

CCCC[C@@H](C)[C@@H](OC(=O)C[C@@H](CC(=O)O)C(=O)O)[C@H](C[C@@H](C)C[C@H](O)CCCC[C@@H](O)C[C@H](O)[C@H](C)N)OC(=O)C[C@@H](CC(=O)O)C(=O)O [fumonisin B1, reference compound]
HCV replication (replicon activity) versus viable cell count [2]: suppressing the HCV replication at non-cytotoxic concentrations

si633: siRNA targeting LCB1, a subunit of the SPT heterodimer; SEQ ID NO: 2 (UGACAUGGCUGACCUCGAGTT; chemistry not given here)
LCB1 protein expression compared with control siRNA [4]: decrease the level of LCB1 protein expression
HCV replicon activity compared with control siRNA-treated cells [2]: significantly inhibited
effect of siRNA treatment on cytotoxicity [3]: almost no effect

CCCCCCC(=O)CCCCCC/C=C/C[C@@H](O)[C@H](O)[C@@](N)(CO)C(=O)O [myriocin]
HCV replication (replicon activity) versus viable cell count [2]: suppressing the HCV replication at non-cytotoxic concentrations
IC50 [5]: 0.001 to 0.01 µM
IC50 [6]: 0.001 to 0.01 µM

CCCCCCCC(CCCCCC/C=C/[C@H](C(=O)N[C@@H](Cc1ccc(OCC=C(C)C)cc1)C(=O)O)[C@@](O)(CC(=O)O)C(=O)O)=NOC [(54)]
CC50 [1]: > 50 µM

CCCCCCCC(O)CCCCCC/C=C/[C@H](C(=O)N[C@@H](Cc1ccc(OCC=C(C)C)cc1)C(=O)O)[C@@](O)(CC(=O)O)C(=O)O (stereo partly shown) [Compound (47)]
CC50 [1]: > 5 µM

CCCCCCCCCCCCCC/C=C/[C@H](C(=O)N[C@@H](Cc1ccc(OCC=C(C)C)cc1)C(=O)O)[C@@](O)(CC(=O)O)C(=O)O [Compound (52)]
IC50 ([2]; Hepatitis C virus, 72 h): 0.1 µM
CC50 [1]: > 50 µM

CCCCCCCC(=O)CCCCCC/C=C/[C@H](C(=O)N[C@@H](Cc1ccc([N+](=O)[O-])cc1)C(=O)O)[C@@](O)(CC(=O)O)C(=O)O [(21)]
IC50 ([2]; Hepatitis C virus, 72 h): 0.08 µM
CC50 [1]: > 1 µM

si246: siRNA targeting LCB1, a subunit of the SPT heterodimer; SEQ ID NO: 1 (CAUCGUUUCAGGCCCUCCATT; chemistry not given here)
LCB1 protein expression compared with control siRNA [4]: Particularly strong inhibition of expression
HCV replicon activity compared with control siRNA-treated cells [2]: strong inhibitory effect
effect of siRNA treatment on cytotoxicity [3]: almost no effect

CCCCCCC(O)C(=O)CCCCCC/C=C/[C@H](C(=O)N[C@@H](Cc1ccc(O)cc1)C(=O)O)[C@@](O)(CC(=O)O)C(=O)O (stereo partly shown) [(43)]
CC50 [1]: > 1 µM

CCCCCCCC(=O)CCCCCCCC[C@H](C(=O)N[C@@H](Cc1ccc(O)cc1)C(=O)O)[C@@](O)(CC(=O)O)C(=O)O [Compound (49)]
CC50 [1]: > 50 µM

CCCCCCCC(=O)CCCCCC/C=C/[C@H](C(=O)N[C@@H](Cc1c[nH]c2ccccc12)C(=O)O)[C@@](O)(CC(=O)O)C(=O)O [(44)]
CC50 [1]: > 1 µM

CCCCCCCC(=O)CCCCCC/C=C/[C@H](C(=O)N[C@@H](Cc1ccc(OCCCC)cc1)C(=O)O)[C@@](O)(CC(=O)O)C(=O)O [(26)]
CC50 [1]: > 1 µM

CCCCCCCCCCCC(=O)N[C@@H](CO)C[C@H](O)c1ccccc1 [HPA-12, reference compound]
HCV replication (replicon activity) versus viable cell count [2]: suppressing the HCV replication at non-cytotoxic concentrations

CC(C)CCOc1ccc(C[C@H](NC(=O)[C@@H](/C=C/CCCCCCC(=O)CCCCC2CCCCC2)[C@](O)(CC(=O)O)C(=O)O)C(=O)O)cc1 [(38)]
IC50 [2]: 0.024 µM
CC50 [3]: > 1 µM

CCCCCCCC(=O)CCCCCC/C=C/[C@H](C(=O)N[C@@H](Cc1ccc(C(F)(F)F)cc1)C(=O)O)[C@@](O)(CC(=O)O)C(=O)O [(18)]
IC50 ([2]; Hepatitis C virus, 72 h): 0.068 µM
CC50 [1]: > 1 µM

CCCCCCCC(=O)CCCCCC/C=C/[C@H](C(=O)N[C@@H](Cc1ccc(OCC=C(C)C)cc1)C(N)=O)[C@@](O)(CC(N)=O)C(N)=O [Compound (50)]
CC50 [1]: > 5 µM

CCCCCCCC(=O)CCCCCC/C=C/[C@H](C(=O)N[C@@H](Cc1ccc(OCC=C(C)C)cc1)C(=O)OC)[C@@](O)(CC(=O)OC)C(=O)O [(42)]
CC50 [1]: > 1 µM

CCCCCCCC(=O)CCCCCC/C=C/[C@H](C(=O)N[C@@H](Cc1ccc(Cl)cc1)C(=O)O)[C@@](O)(CC(=O)O)C(=O)O [(20)]
IC50 ([2]; Hepatitis C virus, 72 h): 0.055 µM
CC50 [1]: > 1 µM

CCCCCCCC(=O)CCCCCC/C=C/[C@H](C(=O)N[C@@H](Cc1ccc(OCCC(C)C)cc1)C(=O)O)[C@@](O)(CC(=O)O)C(=O)O [Compound (46)]
CC50 [1]: > 5 µM

CCCCCCCC(=O)CCCCCC/C=C/[C@H](C(=O)N[C@@H](Cc1ccc(O)cc1)C(=O)O)[C@@](O)(CC(=O)O)C(=O)O [Compound (48)]
CC50 [1]: > 5 µM
